Results published in publication PMC8536644, “Enigmatic mechanism of the N-vinylpyrrolidone hepatocarcinogenicity in the rat” (Archives of Toxicology, 2021).

Tests used:
[1] = tested on: polychromatic erythrocytes of rat bone marrow; test: Micronucleus test in rat bone marrow (OECD 474); settings: for MN/ 1000 PCE Mean ± SD / MN/ 1000 PCE Range / PCE/1000 Erythrozyten Mean ± SD / PCE/NCE quotient (%): 200 mg/kg body weight oral
Procedure: 13-mm filter disks with a pore size of 8 µm were placed on the bottom of 5-mL plastic syringes. Approximately 500 mg of a mixture consisting of equal parts microcrystalline cellulose (Sigmacell®, Typ 50) and alpha-cellulose fibers was added up to the 2-mL mark.
Bone marrow preparation was performed according to published methods (Romagna and Staniforth [1989]; Salamone et al. [1980]). The soft tissue was removed from the femora and the epiphyses were cut off. The bone marrow was rinsed off the diaphyses with approximately 3 mL 37 °C-warm fetal calf serum (FCS) (Biochrom, Berlin, Germany) per femur, placed on the above-described cellulose column and eluted with 3 mL of Hank's Balanced Salt Solution (HBSS) (Biochrom, Berlin, Germany) (with Ca^2+ und Mg^2+). The eluate was centrifuged at 300 g for 5 min and the pellet was suspended in […] FCS. From this suspension three portions per femur were individually placed on slides, air-dried and then stained for 4 min in May-Grunwald solution 1 (Merck, Darmstadt, Germany), followed by 4 min in May–Grunwald solution 2 (May-Grunwald solution 1 diluted 1:1 with aqua bidest.), rinsed in aqua bidest and then stained with Giemsa solution (7.5% dilution derived from Giemsa obtained from Merck, Darmstadt, Germany) for 15 min. Subsequently, the slides were washed twice with aqua bidest, then dried, cleared in xylene and covered with Corbit-Balsam (I. Hecht, Kiel-Hasse, Germany).
2000 polychromatic erythrocytes (PCE) per animal (1000 per slide) were evaluated at 1000-fold magnification under immersion oil for the presence/absence of large and small micronuclei as well as the proportion of PCE among the total erythrocytes. Statistical significance of differences between treated versus untreated groups was evaluated by the one-sided Wilcoxon test (using the program MUKERN). The result is regarded as positive when the following criteria are fulfilled: 1.
2000 PCEs were analyzed for micronuclei per animal.

[2] = Trypan Blue viability of the single cell suspension, liver; assay type: in vivo, rat; settings: Wistar, rat, in vivo, po, 200 mg/kg
rat liver cells [3] = test: as above; assay type: in vivo; settings: Wistar, rat, in vivo, po, 200 mg/kg, 24 h
rat liver cells [4] = test: Comet assay in presence of FPG, liver; settings: in presence of FPG, 200 mg/kg
Procedure: Animals were anesthetized by 3.5% isoflurane (approximately 3 min, evaporator Dräger Vapor 19.3) and then killed by cervical dislocation. The liver was removed and its left lateral lobe used for the Comet assay. The remainder of the liver was washed in saline and then in two aliquots shock frozen in liquid nitrogen and stored at − 80 °C for later examinations. Subsequently the lung was removed from the dead animal. Its left lobe was used for the Comet assay and the remainder treated as described above for the liver. Thereafter the femora were removed for the preparation of the bone marrow.
The Comet assay was performed under alkaline conditions according to the principles described by Singh et al. ([1988]) and Tice et al. ([2000]).
Liver and lung cells were obtained essentially as described by Hartmann et al. ([2004]) and by the Japanese Center for the Validation of Alternative Methods (JaCVAM [2009]). Single cells were obtained within 1 h after killing of the animals in order to minimize DNA damage during the preparation.
The organ parts (see above) were washed in mincing buffer (50 mM EDTA in HBSS [without Ca^2+ and Mg^2+] pH 7.5: DMSO 9:1 (v/v), the latter added shortly before use, stored at 4 °C), cut into 1 to 2-mm pieces in ice-cold mincing buffer and transferred to a cell sieve with 70-µm pores. The viability of the cell suspension was evaluated by the Trypan Blue Assay (Strober [2001]).
100 µL of the obtained cell suspension was mixed at 37 °C with 900 µL Low Melting Agarose (LMA) (0.7% agarose in phosphate-buffered saline [PBS] [Biochrom, Berlin, Germany] without Ca^2+ and Mg^2+). 100 µL of this mixture was transferred to a slide, which had been coated with Normal Melting Agarose (NMA) (0.6% agarose in PBS without Ca^2+ and Mg^2+). The slides were protected with a cover slip and the agarose was hardened at approximately 4 °C. The cover slips were then removed and the slides put over night at 4 °C into lysis buffer (2.5 M NaCl, 125 mM NaOH, 127 mM EDTA, 10 mM Tris/NaOH, pH 10; 1% Triton X-100 and 10% DMSO (v/v), the latter two added before use) in order to lyse the cell membrane, nuclear membrane and remove the histone.
The then following procedures were performed in a shaded room to minimize UV-mediated DNA damage during the procedures.
Those slides which were destined to be treated with the DNA base excision repair enzyme FPG (Sigma Aldrich, Steinheim, Germany) were washed (3 times for 5 min) with FPG buffer (0.04 M HEPES, 0.5 mM EDTA, 0.1 M KCl, pH 8; add shortly before use bovine serum albumin [BSA] to a final concentration of 0.02%). Subsequently 50 µL FPG-enzyme-buffer (prepared shortly prior to use by 30-fold dilution of the following suspension in FPG buffer: 7 µL FPG-enzyme (14 U) and 70 µL glycerol in 623 µL FPG-Puffer, stored at − 80 °C) was pipetted on the slide which was covered with a cover slide and incubated for 30 min at 37 °C while being placed on a humid filter paper. After hardening of the agarose cover slips were removed.
Remaining lysis buffer or FPG buffer was removed by immersing/washing the slides in PBS (without Ca^2+ and Mg^2+).

For `CCOS(C)(=O)=O` [EMS, ethyl methanesulfonate, reference compound], the “MN/ 1000 PCE Mean ± SD” value ([1]; female) was 11.8 ± 12.3 MN/ 1000 PCE, the “MN/ 1000 PCE Range” value ([1]; female) was 9.0–14.5 MN/ 1000 PCE and the “PCE/1000 Erythrozyten Mean ± SD” value ([1]; female) was 563 ± 29 PCE/1000 Erythrozyten. The “PCE/NCE quotient (%)” value ([1]; female) was 89%, the “MN/ 1000 PCE Mean ± SD” value ([1]; male) was 14.5 ± 6.0 MN/ 1000 PCE and the “MN/ 1000 PCE Range” value ([1]; male) was 3.0–20.0 MN/ 1000 PCE. The “PCE/1000 Erythrozyten Mean ± SD” value ([1]; male) was 616 ± 50 PCE/1000 Erythrozyten, the “PCE/NCE quotient (%)” value ([1]; male) was 101% and the “Micronuclei in PCE” value ([1]; 200 mg/kg body weight, independent of gender) was 13.2 ± 4.6 ‰. The “Micronuclei in PCE” value ([1]; female, Wistar Crl:WI (Han), rat, in vivo, 24 h) was 11.8 ± 2.3 ‰, the “Micronuclei in PCE” value ([1]; male, Wistar Crl:WI (Han), rat, in vivo, 24 h) was 14.5 ± 6.0 ‰ and the viability at 24 h ([2]; female, Individual viability (%)) was 99%. For the same compound, the viability at 24 h ([2]; female, Viability (%) (mean ± SD)) was 96 ± 2%, the viability at 24 h ([2]; male, Individual viability (%)) was 91% and the viability at 24 h ([2]; male, Viability (%) (mean ± SD)) was 95 ± 3%. For the same compound, the “Individual viability (%)” value (rat liver cells [3]; female) was 97%, the “Individual viability (%)” value (rat liver cells [3]; male) was 94% and the “Comets seen in presence of FPG” value (rat liver cells [4]) was “only hedgehogs were seen”. For the same compound, the “TI in presence of FPG (image analysis)” value (rat liver cells [4]) was “marked increase”.
